Legend:
[1] = molecular target: T1, human PI3Kα (PIK3CA/PIK3R1) (Homo sapiens, UniProt P42336); assay: lipid kinase assay (ADP-Glo), PI3Kα; assay type: biochemical
T1 construct: purchased ProQinase, Germany 1161‐1165‐1
Method: (§1) In vitro selection, lipid kinase assay: To determine the inhibitory activity of the new molecular entities on PI3K enzyme, a lipid kinase assay was performed: recombinant proteins (30 ng), human PI3Kα (PIK3CA/PIK3R1, #1161‐1165‐1 ProQinase–Germany), hPI3Kβ (PIK3CB wt/PIK3R1, #1168‐1165‐1 ProQinase, Germany), hPI3Kγ (PIK3CG, #1163‐0000‐1 ProQinase, Germany), hPI3Kδ (PIK3CD/PIK3R1, #1162–1165‐1 ProQinase, Germany), hPI3K‐C2α (PIK3C2A, #14‐906 Merck Millipore_Merck KGaA, Germany), hPI3K‐C2β (PIK3C2B, #14‐907 Merck Millipore_Merck KGaA, Germany), hPI3K‐c2γ (PIK3C2G, #1207‐0000‐1 ProQinase, Germany), and hVps34 (PIK3C3, #1160‐0000‐1 ProQinase, Germany), were incubated in kinase buffer {12.5 μL; 20 mM Tris‐HCl pH 7.5, 10 mM MgCl2, 10 μM ATP, 0.05 mg mL^−1 BSA, 0.5 mM EDTA, 5 mM HEPES pH 7.5, for PI3Kα,PI3Kβ, PI3Kγ, PI3Kδ, PI3KC‐2α, and PI3KC‐2γ; 15 mM MnCl2, 5 mM EGTA, 100 μM ATP, 50 mM HEPES pH 7.5, 100 mM NaCl, and 0.03 % CHAPS for PI3K‐C2β and VPS34 {BSA=bovine serum albumin; EDTA=ethylenediaminetetraacetic acid; HEPES=4‐(2‐hydroxyethyl)‐1‐piperazineethanesulfonic acid; EGTA=ethylene glycol‐bis(2‐aminoethylether)‐N,N,N′,N′‐tetraacetic acid; CHAPS=3‐[(3‐cholamidopropyl)dimethylammonio]‐1‐propanesulfonate}. In the reaction, the ATP concentration used for different PI3Ks was defined on the basis of the Michaelis–Menten kinetics of each enzyme, provided by the supplier. Reaction was performed in presence of 0.5 mg mL^−1 lipid micelles (1:1 phosphatidylinositol/phosphatidylserine) and in the absence (DMSO alone) or presence of increasing concentrations of each compound (from 0.1 nM to 30 μM). The mixture was kept at room temperature (RT) for 30 min for PI3Kα, PI3Kβ, PI3Kγ, PI3Kδ, PI3KC‐2α, and PI3KC‐2γ and for 1 h for PI3K‐C2β and PI3K‐C3. The amount of ADP produced in the reaction was measured by using the ADP‐Glo Kinase Assay kit from Promega (#V9102) and a luminescence reader (Glomax multi detection system, Promega, model number 9301‐010).
(§2) The residual PI3K lipid kinase activity in the presence of each molecule at different concentrations was related to the control, intended as the recombinant protein in the presence of DMSO alone and was expressed as a percentage. To derive the IC50 value, all data (% of lipid kinase activity) were plotted on a dose–response curve (Graph Pad software), and the IC50 was calculated by using nonlinear regression fit (equation [log agonist] versus response).

hPI3Kδ (PIK3CD/PIK3R1) = molecular target: T2, hPI3Kδ (PIK3CD/PIK3R1) (Homo sapiens, UniProt O00329); assay: lipid kinase assay (ADP-Glo), PI3Kδ; assay type: biochemical
T2 construct: purchased ProQinase, Germany 1162–1165‐1
Method: as §1, §2

[2] = system: PI3K/Akt signaling in NIH3T3 cells; assay: insulin-stimulated Akt phosphorylation, Western blot, NIH3T3 cells; assay type: cell-based; details: 1 μM insulin for 5 min, immunoblot
Method: Figure 8 Treatment with 64 prodrug inhibited PI3K/Akt signaling. NIH3T3 cells were […] for 12 h and were treated with the indicated concentrations of 37 and 64. Cells were next stimulated with 1 μM insulin for 5 min, and total cell lysates were prepared. Immunoblot analysis was conducted for the expression levels of p‐AKT and GAPDH. The immunoblot is representative of three independent experiments.
NIH3T3 cells were seeded in a 96‐well plate and starved overnight (ON) with serum‐free DMEM high glucose GlutaMAXTM (Gibco) supplemented with 5000 U mL^−1 penicillin–streptomycin (Gibco). Cells were then incubated for 1 h with increasing concentrations of 64, 37, or DMSO. Subsequently, cells were stimulated for 5 min with 1 μM of insulin (#91077C, Sigma–Aldrich, USA). Cells were lysed and protein extracts were analyzed by western blot to assess the phosphorylation level of Akt on Ser473.

PC3 cells = assay: PC3 cell proliferation (MTT); assay type: cell-based; parameters: key to Cell proliferation: active: Active: able to reduce proliferation to an extent greater than 50 %; inactive: able to reduce proliferation to an extent less than 50 %
Method: The biological activity of each prodrug was tested by analyzing their ability to decrease PC3 proliferation as a rapid test to evaluate the PI3Ks inhibitory activity after hydrolysis in a cell‐based assay. […] The choice of using such a cut‐off was due to the intent to identify rapidly which prodrug could be hydrolyzed in the assay to release the active compound. As expected, a good correlation between rate of hydrolysis and cellular activity was observed, and esters 64–68 and 70–73 were determined to be good candidates for topical use. We decided to focus our attention on ester 64, as its half‐life was a good compromise for a prodrug. The EC50 value of this ester was then evaluated on PC3 cells, and a value of (2.3±0.8) μM was obtained.
Cell proliferation: PC3 cell proliferation was measured with a 3‐(4,5‐dimethyl thiazol‐2‐yl)‐2,5‐diphenyltetrazolium bromide (MTT)‐based colorimetric assay (#11 465 007 001 Roche Diagnostic GmbH, Germany). PC3 cells were seeded in a 96‐well plate at a concentration of 10^4 cells mL^−1. PC3 cells were treated for 72 h with increasing concentrations of 64, and MTT was added. After ON solubilization of the MTT metabolite, formazan, the absorbance (λ=550–600 nm absorbance, with a reference wavelength of 650 nm) of each well was read in a multi‐well reader (Glomax multi detection system, Promega, model number 9301‐010). The percentage of proliferating cells was calculated by relating each absolute value to the control intended as PC3 cells treated with DMSO alone. An IC50 value was then derived by plotting all data on a dose–response curve (Graph Pad software) by using nonlinear regression fit (equation [log agonist] versus response).

T1 sequence (P42336 whole entry): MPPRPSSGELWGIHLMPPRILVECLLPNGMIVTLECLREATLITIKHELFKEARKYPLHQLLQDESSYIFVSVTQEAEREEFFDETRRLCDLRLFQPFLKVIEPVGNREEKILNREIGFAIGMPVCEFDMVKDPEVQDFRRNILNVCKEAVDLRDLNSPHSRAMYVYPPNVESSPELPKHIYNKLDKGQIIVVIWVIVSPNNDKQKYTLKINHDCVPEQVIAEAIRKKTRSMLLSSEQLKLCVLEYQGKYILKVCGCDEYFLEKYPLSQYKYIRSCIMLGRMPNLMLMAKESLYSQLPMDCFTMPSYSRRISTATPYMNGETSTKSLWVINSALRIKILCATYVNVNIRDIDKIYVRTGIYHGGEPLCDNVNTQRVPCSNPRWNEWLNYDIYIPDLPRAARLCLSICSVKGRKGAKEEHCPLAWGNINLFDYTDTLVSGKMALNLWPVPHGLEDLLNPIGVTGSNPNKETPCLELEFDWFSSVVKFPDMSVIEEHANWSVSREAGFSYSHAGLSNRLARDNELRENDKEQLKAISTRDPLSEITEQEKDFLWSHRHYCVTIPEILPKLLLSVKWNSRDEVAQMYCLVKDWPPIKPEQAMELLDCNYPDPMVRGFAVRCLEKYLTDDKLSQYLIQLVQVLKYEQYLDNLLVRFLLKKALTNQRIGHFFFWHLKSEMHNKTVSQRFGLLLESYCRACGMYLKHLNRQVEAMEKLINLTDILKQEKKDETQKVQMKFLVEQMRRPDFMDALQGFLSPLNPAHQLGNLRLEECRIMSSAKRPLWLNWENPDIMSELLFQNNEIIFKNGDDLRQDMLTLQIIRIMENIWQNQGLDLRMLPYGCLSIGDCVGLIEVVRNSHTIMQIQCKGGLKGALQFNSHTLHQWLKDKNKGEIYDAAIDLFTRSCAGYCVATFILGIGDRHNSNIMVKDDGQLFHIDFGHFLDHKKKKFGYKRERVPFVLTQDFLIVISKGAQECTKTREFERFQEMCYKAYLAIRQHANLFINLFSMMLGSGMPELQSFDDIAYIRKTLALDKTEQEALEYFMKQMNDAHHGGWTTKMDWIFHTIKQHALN
T1 sequence (P27986 whole entry partner): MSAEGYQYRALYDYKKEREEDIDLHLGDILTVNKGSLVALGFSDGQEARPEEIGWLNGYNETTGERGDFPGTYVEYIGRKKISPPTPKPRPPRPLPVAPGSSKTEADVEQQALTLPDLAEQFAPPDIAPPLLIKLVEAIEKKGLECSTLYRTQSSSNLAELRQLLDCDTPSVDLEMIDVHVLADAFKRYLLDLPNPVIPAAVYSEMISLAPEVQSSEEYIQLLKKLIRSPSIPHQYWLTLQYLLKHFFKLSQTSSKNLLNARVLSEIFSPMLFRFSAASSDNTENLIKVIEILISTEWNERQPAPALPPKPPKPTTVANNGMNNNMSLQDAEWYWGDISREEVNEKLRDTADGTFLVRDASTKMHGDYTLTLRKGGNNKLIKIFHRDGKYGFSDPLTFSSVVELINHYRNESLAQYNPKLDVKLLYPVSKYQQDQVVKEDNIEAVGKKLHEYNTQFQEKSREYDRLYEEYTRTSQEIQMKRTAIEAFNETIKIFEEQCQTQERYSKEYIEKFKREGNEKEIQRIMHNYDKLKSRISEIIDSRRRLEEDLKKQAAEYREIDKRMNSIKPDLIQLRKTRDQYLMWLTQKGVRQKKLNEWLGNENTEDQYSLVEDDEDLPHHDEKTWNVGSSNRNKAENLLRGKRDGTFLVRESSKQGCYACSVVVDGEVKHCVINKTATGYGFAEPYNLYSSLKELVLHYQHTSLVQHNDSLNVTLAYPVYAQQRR
T2 sequence (O00329 whole entry): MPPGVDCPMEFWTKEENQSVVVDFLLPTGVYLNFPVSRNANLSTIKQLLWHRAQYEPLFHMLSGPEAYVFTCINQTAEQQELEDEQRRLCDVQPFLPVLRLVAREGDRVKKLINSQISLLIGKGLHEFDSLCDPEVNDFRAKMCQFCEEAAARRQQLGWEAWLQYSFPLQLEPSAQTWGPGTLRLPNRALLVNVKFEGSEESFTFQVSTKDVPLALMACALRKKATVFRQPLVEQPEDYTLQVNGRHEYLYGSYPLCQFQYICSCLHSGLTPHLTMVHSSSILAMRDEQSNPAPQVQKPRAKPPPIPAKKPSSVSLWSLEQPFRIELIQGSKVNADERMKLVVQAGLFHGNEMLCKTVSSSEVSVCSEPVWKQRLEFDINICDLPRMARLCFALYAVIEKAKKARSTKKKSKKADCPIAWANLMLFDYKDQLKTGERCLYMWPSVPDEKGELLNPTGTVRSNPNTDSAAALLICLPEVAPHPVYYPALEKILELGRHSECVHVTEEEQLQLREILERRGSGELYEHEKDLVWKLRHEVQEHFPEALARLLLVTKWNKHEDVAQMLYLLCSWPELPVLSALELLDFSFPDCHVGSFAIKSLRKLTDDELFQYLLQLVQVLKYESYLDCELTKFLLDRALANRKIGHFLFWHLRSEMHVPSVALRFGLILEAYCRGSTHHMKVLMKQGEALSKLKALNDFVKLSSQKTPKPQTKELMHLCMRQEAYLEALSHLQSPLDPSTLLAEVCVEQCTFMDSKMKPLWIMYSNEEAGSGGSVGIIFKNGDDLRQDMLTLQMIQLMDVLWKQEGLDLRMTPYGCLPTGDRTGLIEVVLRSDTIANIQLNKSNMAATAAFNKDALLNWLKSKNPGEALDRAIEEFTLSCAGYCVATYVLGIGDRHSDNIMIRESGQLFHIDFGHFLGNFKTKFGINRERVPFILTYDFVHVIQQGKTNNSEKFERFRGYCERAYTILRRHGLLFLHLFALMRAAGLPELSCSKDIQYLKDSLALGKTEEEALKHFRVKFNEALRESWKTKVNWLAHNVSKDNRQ
T2 sequence (P27986 whole entry partner): as the sequence (P27986 whole entry partner) above

SMILES | IC50 ([1]; Table 2, mean of at least three determinations, 95 % confidence intervals, read-out: IC50 PI3Kα) [nM] | inhibition at 1 µM ([1]; determined at 1 μM, at least triplicate, read-out: Inhibitory activity, PI3K isoform α) [%] | IC50 (hPI3Kδ (PIK3CD/PIK3R1); Table 2, mean of at least three determinations, 95 % confidence intervals) [nM] | inhibition at 1 µM (hPI3Kδ (PIK3CD/PIK3R1); determined at 1 μM, at least triplicate, read-out: Inhibitory activity, PI3K isoform δ) [%] | Akt phosphorylation after insulin stimulation [2] | inhibition of PI3Kα activity ([1]; at 100 nM) | effect on proliferation of PC3 cells (PC3 cells; 72 h of treatment) | EC50 (PC3 cells; Homo sapiens, PC-3, PC3 proliferation, MTT, 72 h) [nM] | Cell proliferation (PC3 cells; PC3 cells, 10 μM of each prodrug)
O=C(O)c1cccc(Cn2cc(-c3cccc4c(=O)cc(N5CCOCC5)[nH]c34)nn2)c1 [Compound 37, 3‐{[4‐(2‐Morpholino‐4‐oxo‐1,4‐dihydroquinolin‐8‐yl)‐1H‐1,2,3‐triazol‐1‐yl]methyl}benzoic acid] | 18 ± 4 | > 50 | 19 ± 4 | > 50 | did not decrease Akt phosphorylation |  |  |  | 
COC(=O)c1cccc(Cn2cc(-c3cccc4c(=O)cc(N5CCOCC5)[nH]c34)nn2)c1 [Compound 64, Methyl 3‐{[4‐(2‐morpholino‐4‐oxo‐1,4‐dihydroquinolin‐8‐yl)‐1H‐1,2,3‐triazol‐1‐yl]methyl}benzoate] |  |  |  |  | able to inhibit the PI3K‐signaling pathway in a dose‐dependent manner | not able to inhibit PI3Kα activity | dose‐dependently decreased proliferation | 2300 ± 800 | active

Reference: publication PMC5697638, “Identification of a Potent Phosphoinositide 3‐Kinase Pan Inhibitor Displaying a Strategic Carboxylic Acid Group and Development of Its Prodrugs” (Chemmedchem, 2017)
